# According to ChEMBL document CHEMBL4387751, “Development of substituted pyrido[3,2-d]pyrimidines as potent and selective dihydrofolate reductase inhibitors for pneumocystis pneumonia infection” (Bioorg Med Chem Lett, 2019):
# Tests used:
# [1] = Inhibition of Pneumocystis jirovecii DHFR expressed in Escherichia coli Rosetta-gami B (DE3) assessed as reduction in consumption of NADPH using 9 uM DHFA as substrate
# Dihydrofolate reductase [2] = biological target: T1, Dihydrofolate reductase (Homo sapiens, UniProt P00374); test: Inhibition of recombinant human DHFR assessed as reduction in consumption of NADPH using 9 uM DHFA as substrate
# T1 sequence (P00374 whole entry): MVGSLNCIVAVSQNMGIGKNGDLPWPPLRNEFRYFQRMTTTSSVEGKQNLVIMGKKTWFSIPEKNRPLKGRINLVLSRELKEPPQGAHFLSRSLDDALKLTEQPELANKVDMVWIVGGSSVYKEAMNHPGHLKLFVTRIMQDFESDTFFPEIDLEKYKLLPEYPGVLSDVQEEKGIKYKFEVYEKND
# [3] = test system: DHFR (human versus Pneumocystis jirovecii); test: Selectivity ratio of IC50 for inhibition of recombinant human DHFR using 9 uM DHFA as substrate to IC50 for inhibition of Pneumocystis jirovecii DHFR using 9 uM DHFA as substrate; format: toxicity; conditions: recombinant human DHFR and Pneumocystis jirovecii DHFR, probe DHFA (substrate), read-out: Ratio IC50
# [4] = Inhibition of Pneumocystis jirovecii DHFR expressed in Escherichia coli Rosetta-gami B (DE3) assessed as reduction in consumption of NADPH using 18 uM DHFA as substrate
# [5] = test system: DHFR (human versus Pneumocystis jirovecii); test: Selectivity ratio of IC50 for inhibition of recombinant human DHFR using 18 uM DHFA as substrate to IC50 for inhibition of Pneumocystis jirovecii DHFR using 18 uM DHFA as substrate; format: toxicity; conditions: recombinant human DHFR and Pneumocystis jirovecii DHFR, probe DHFA (substrate), read-out: Ratio IC50
# Dihydrofolate reductase [6] = biological target: T2, Dihydrofolate reductase (Rattus norvegicus, UniProt Q920D2); test: Inhibition of rat liver DHFR assessed as reduction in consumption of NADPH using DHFA as substrate
# T2 sequence (Q920D2 whole entry): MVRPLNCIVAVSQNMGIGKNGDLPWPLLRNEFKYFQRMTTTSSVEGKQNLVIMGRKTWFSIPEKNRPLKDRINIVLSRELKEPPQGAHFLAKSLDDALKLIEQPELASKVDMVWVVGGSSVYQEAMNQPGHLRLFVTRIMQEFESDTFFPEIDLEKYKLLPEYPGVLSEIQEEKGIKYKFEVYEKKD
# [7] = Inhibition of Pneumocystis carinii DHFR expressed in Escherichia coli Rosetta-gami B (DE3) assessed as reduction in consumption of NADPH using DHFA as substrate
Structure (SMILES),IC50 [1] [nM],IC50 (Dihydrofolate reductase [2]) [nM],selectivity ratio [3],IC50 [4] [nM],other results
Nc1nc(N)c2nc(Nc3ccc(F)c(F)c3)ccc2n1,80,2250,28,–,–
Nc1nc(N)c2cc(Nc3ccccc3)cnc2n1,–,–,–,300,selectivity ratio [5]: < 1
Nc1nc(N)c2nc(Nc3ccc(O)cc3)ccc2n1,150,1580,10,–,–
COc1ccc(Nc2ccc3nc(N)nc(N)c3n2)cc1,239,2460,–,–,–
Nc1nc(N)c2nc(Nc3ccccc3)ccc2n1,122,1530,13,–,–
COc1cc(NCc2ccc3nc(N)nc(N)c3c2C)cc(OC)c1OC [TRIMETREXATE],–,–,–,2.1,–
Cc1ccc(Nc2ccc3nc(N)nc(N)c3n2)cc1,174,2630,15,–,–
COc1ccc(Nc2cnc3nc(N)nc(N)c3c2)cc1,–,–,–,400,–
Nc1nc(N)c2nc(Nc3cccc4ccccc34)ccc2n1,112,1100,10,–,–
CCCCN(c1ccccc1)c1ccc2nc(N)nc(N)c2n1,66,–,–,–,–
Nc1nc(N)c2cc(Nc3ccc4ccccc4c3)cnc2n1,–,–,–,400,selectivity ratio [5]: 5
Nc1nc(N)c2nc(Nc3cc(F)c(F)c(F)c3)ccc2n1,155,–,12,–,–
Nc1nc(N)c2nc(Nc3ccc4ccccc4c3)ccc2n1,275,3180,12,–,–
Nc1nc(N)c2cc(Nc3cccc4ccccc34)cnc2n1,–,–,–,250,selectivity ratio [5]: 8
Cc1ccc(Nc2cnc3nc(N)nc(N)c3c2)cc1,–,–,–,620,selectivity ratio [5]: 3
COc1ccc(OC)c(NCc2cnc3nc(N)nc(N)c3c2)c1,–,–,–,–,IC50 (Dihydrofolate reductase [6]): 500 nM
Nc1nc(N)c2cc(Nc3cc(F)c(F)c(F)c3)cnc2n1,–,–,–,870,selectivity ratio [5]: 4
COc1ccc(OC)c(NCc2ccc3nc(N)nc(N)c3n2)c1,–,–,–,–,IC50 [7]: 1400 nM
CCN(c1ccccc1)c1ccc2nc(N)nc(N)c2n1,150,–,–,–,–
